Data on four molecules can be found in patent publication US20250051357A1, “SOLID FORMS OF A GPR119 AGONIST AND PROCESSES FOR THE PREPARATION THEREOF” (MANKIND PHARMA LTD., priority 2023, published 2025).

Where “and” joins values, the source holds several entries; their conditions need not be identical. Equal entries are not always repeated.

The data set in a line: Particle size analysis, Malvern particle size analyzer (Mastersizer 3000). Format: physicochemical. Particulars: particle size distribution d90 of the isolated batch; dispersant water, Tween-80 paste, Mie model. The method, then: Particle size analysis was performed using a Malvern particle size analyzer. (Mastersizer 3000, Malvern Instrument Ltd).
Weigh accurately 100 mg of sample in 100 ml beaker. Add 3 drops of Tween-80 and 1 mL of water and make a paste with the help of glass rod. Then add 10 ml water and sonicate externally for 10 seconds with continued shaking.

Take `CCc1cnc(N2CCC([C@H](C)Oc3nn4cc(-c5ccc(S(C)(=O)=O)cc5F)nc4s3)CC2)nc1` [Form M-2, 2-((S)-1-(1-(5-ethyl-pyrimidin-2-yl)piperidin-4-yl)ethoxy)-6-(2-fluoro-4-(methylsulfonyl)phenyl) imidazo[2,1-b][1,3,4]thiadiazole]: the “PSD (d90)” value was found to be 99.8 μm.
As for `CCc1cnc(N2CCC([C@H](C)Oc3nn4cc(-c5ccc(S(C)(=O)=O)cc5F)nc4s3)CC2)nc1` [amorphous Form, 2-((S)-1-(1-(5-ethyl-pyrimidin-2-yl)piperidin-4-yl)ethoxy)-6-(2-fluoro-4-(methylsulfonyl)phenyl) imidazo[2,1-b][1,3,4]thiadiazole], the “PSD (d90)” value is listed as 50-80 μm.
Take `CCc1cnc(N2CCC([C@H](C)Oc3nn4cc(-c5ccc(S(C)(=O)=O)cc5F)nc4s3)CC2)nc1` [Form M-1, 2-((S)-1-(1-(5-ethyl-pyrimidin-2-yl)piperidin-4-yl)ethoxy)-6-(2-fluoro-4-(methylsulfonyl)phenyl) imidazo[2,1-b][1,3,4]thiadiazole]: the “PSD (d90)” value was 84.9 μm and 62.4 μm and 106 μm.
As to `CCc1cnc(N2CCC([C@H](C)Oc3nn4cc(-c5ccc(S(C)(=O)=O)cc5F)nc4s3)CC2)nc1` [Form M-4, 2-((S)-1-(1-(5-ethyl-pyrimidin-2-yl)piperidin-4-yl)ethoxy)-6-(2-fluoro-4-(methylsulfonyl)phenyl) imidazo[2,1-b][1,3,4]thiadiazole], the “PSD (d90)” value is 30-60 μm.
